Laboratory results from patent US12313613B2, “Method of testing crystallinity in amorphous pharmaceutical compositions” (ColVisTec AG, priority 2019, dated 2025).

Columns and labels:
Format in all cases: physicochemical
[1] = In-line UV/vis transmission crystallinity detection of piroxicam in Kollidon VA64 (solubility maximum, twin-screw extruder); settings: in Kollidon VA64, hot melt extrusion, amorphous, homogeneous and transparent below this loading
Source text: A twin-screw extruder was used to assess the solubility maximum for a mixture of the non-steroidal anti-inflammatory drug (NSAID) piroxicam (PRX) and the carrier polymer Kollidon VA64. The mixture was continuously analysed while traversing the extruder screw using a system of in-line UV/vis spectrometers and the input of the PRX was adjusted until crystallinity was first detected.
UV/vis transmission spectra were obtained for 15, 18, 20, 23 and 25 wt % PRX samples.

[2] = Off-line XRD crystallinity detection of PRX / Kollidon VA64 mixtures (Bruker instrument); settings: in Kollidon VA64, milled samples, no crystallinity detected at 25 wt %
Experimental: The samples were analysed by a UV/vis spectrometer in transmission mode (FIG. 1) and an XRD spectrum of the same samples was also obtained for comparison and verification (FIG. 2). The XRD samples required milling and analysis offline whereas UV/vis has the advantages that it can be performed rapidly in-line without milling.
XRD spectra were obtained on a Bruker instrument for each of pure solid PRX, Kollidon VA64, and 20, 25 and 30 wt % PRX mixtures separately. […] Only at 30 wt % PRX loading, well above the maximum solubility when there is substantially higher crystallinity, does the XRD spectra first show peaks that correlate with the pure XRD spectra of PRX.

[3] = Particle size distribution of the components (Mastersizer laser diffraction)
Experimental: In some cases, the particle size of the dispersion or solution is measured prior to being subjected to UV/vis spectroscopy. Known methods of sizing the dispersion or solution include sieve analysis, direct imaging and laser diffraction. In the present disclosure, a Mastersizer (Malvern Instruments) laser diffraction device was used.

Structure (SMILES)	PRX loading at which the first microcrystalline domains are observed (solubility maximum in carrier) [1]	PRX loading at which XRD spectra first show peaks of crystalline PRX [2]	D10 [3]	D50 [3]	D90 [3]
CN1C(C(=O)Nc2ccccn2)=C(O)c2ccccc2S1(=O)=O [PRX, 4-hydroxy-2-methyl-1,1-dioxo-N-pyridin-2-yl-1$1^6,2-benzothiazine-3-carboxamide]	25 wt %	30 wt %	–	–	–
Cc1cc(C#N)cc(C)c1Oc1nc(Nc2ccc(C#N)cc2)nc(N)c1Br [crystalline etravirine (ETR), 4-[6-amino-5-bromo-2-(4-cyanoanilino)pyrimidin-4-yl]oxy-3,5-dimethylbenzonitrile]	–	–	8 μm	26 μm	87 μm
